From patent US20200010910A1, “Cytotoxic Chemotherapy-Based Predictive Assays for Acute Myeloid Leukemia” (The Regents of The University of California, priority 2017, published 2020)

Assays:
A549 = test: carboplatin-DNA monoadducts by AMS; format: cell-based, human
Procedure: (§1) NSCLC cell lines were cultured to >90% confluence, dosed with [^14C]carboplatin, and subjected to DNA isolation and AMS analysis. 60 mm dishes were seeded at a density of 1×10^6 cells/dish and allowed to attach overnight in a 37° C. humidified atmosphere containing 5% CO2. At hour 0, cells were dosed with 1 μM (relevant microdose concentration) or 100 μM carboplatin (therapeutically relevant concentration), each comprising 0.3 μM [^14C]carboplatin (50,000 dpm/ml). Cells were incubated with [^14C]carboplatin for 4 h before washing and cultured with carboplatin-free medium to mimic the in vivo carboplatin half-life (1.3-6 hours) in patients. DNA was harvested from the cell lines at hours 0, 2, 4, 8 and 24 hours after initial dosing. Ten micrograms of DNA per sample was converted to graphite and measured by AMS for ^14C/total C quantification. Triplicate sets of AMS experiments were performed for each cell line and time point. The 14C/total C ratio was converted to 14C atoms per DNA base-pair according to the algorithm described herein to provide values of carboplatin-DNA monoadducts per 10^8 nucleotides. The data was plotted as carboplatin-DNA monoadducts per 10^8 nucleotide (nt) vs time (FIGS. 8A and 8B). There was a time-dependent increase in the carboplatin-DNA monoadduct concentration during the first 4 hours of incubation with therapeutic or microdosing carboplatin (FIGS. 8A and 8B). After the cells were washed and incubated with carboplatin-free media, the monoadduct levels decreased over a period of several hours. […] Carboplatin-DNA monoadduct levels in the microdosing group had essentially the same kinetics as the therapeutic group, but with 100-fold lower adduct levels at each time point (FIGS. 8A and 8B).

H1975 = test: carboplatin-DNA monoadducts by AMS; format: cell-based, human
Procedure: as §1

H23 = test: carboplatin-DNA monoadducts by AMS; format: cell-based, human
Procedure: as §1

H460 = test: carboplatin-DNA monoadducts by AMS; format: cell-based, human
Procedure: as §1

HCC827 = test: carboplatin-DNA monoadducts by AMS; format: cell-based, human
Procedure: as §1

H727 = test: carboplatin-DNA monoadducts by AMS; format: cell-based, human
Procedure: as §1

T24 = test: MTT assay IC50, bladder cancer cell line; format: cell-based
Excerpt: (§2) If these diadducts are the predominant DNA lesion responsible for cell death, then the IC50 of the two drugs should be linearly related. Thus, we measured the IC50 of the six NSCLC cell lines from Example 2 to both cisplatin and carboplatin to determine if the sensitivity of these six NSCLC cell lines to the two drugs are correlated. We observed a statistically significant linear correlation of the cytotoxicity of these two drugs in the 6 cell lines used in this study (R^2=0.72, p=0.033, FIG. 9A) and also to six additional ATCC bladder cancer cell lines. (R^2=0.72, p=0.033), FIG. 9B).

TCCSUP = test: MTT assay IC50, bladder cancer cell line; format: cell-based
Excerpt: as §2

RT4 = test: MTT assay IC50, bladder cancer cell line; format: cell-based
Excerpt: as §2

HT1197 = test: MTT assay IC50, bladder cancer cell line; format: cell-based
Excerpt: as §2

J82 = test: MTT assay IC50, bladder cancer cell line; format: cell-based
Excerpt: as §2

5637 = test: MTT assay IC50, bladder cancer cell line; format: cell-based, human; conditions: 72 hours
Procedure: Thus, we measured the IC50 of the six NSCLC cell lines from Example 2 to both cisplatin and carboplatin to determine if the sensitivity of these six NSCLC cell lines to the two drugs are correlated.
Drug-DNA adduct formation and repair was measured by accelerator mass spectrometry.
These two cell lines were also cultured with a range of concentrations of cisplatin, carboplatin, gemcitabine, doxorubicin, methotrexate and vinblastine for 72 hours to determine IC50 for these other drugs (FIG. 16C). These drugs were chosen because of their frequent use in the treatment of bladder cancer.

[1] = 1 μM carboplatin 4 h, up to 24 hours
[2] = 1 μM carboplatin 4 h then drug-free
[3] = 100 μM carboplatin 4 h, up to 24 hours
[4] = 100 μM carboplatin 4 h then drug-free

`N.N.O=C([O-])C1(C(=O)[O-])CCC1.[Pt+2]` [carboplatin] was tested, and the “Adduct level-4 hr-microdose” value (A549; 1 μM carboplatin) was 2.0 ± 0.4 /10^8 nt, the AUC of adduct-microdose (A549; [1]) was 31.5 ± 1.6 hr-adducts/10^8 nt and the “Adduct level-24 hr Microdose” value (A549; [2]) was 0.9 ± 0.0 /10^8 nt. The “Adduct level-4 hr-therapeutic” value (A549; 100 μM carboplatin) was 163 ± 74.4 /10^8 nt, the AUC of adduct-therapeutic (A549; [3]) was 2331 ± 257 hr-adducts/10^8 nt and the “Adduct level-24 hr-therapeutic” value (A549; [4]) was 74 ± 10.4 /10^8 nt. The “Adduct level-4 hr-microdose” value (H1975; 1 μM carboplatin) was 3.3 ± 0.5 /10^8 nt, the AUC of adduct-microdose (H1975; [1]) was 47.0 ± 4.8 hr-adducts/10^8 nt and the “Adduct level-24 hr Microdose” value (H1975; [2]) was 1.1 ± 0.6 /10^8 nt. The “Adduct level-4 hr-therapeutic” value (H1975; 100 μM carboplatin) was 322 ± 24.1 /10^8 nt, the AUC of adduct-therapeutic (H1975; [3]) was 4478 ± 353 hr-adducts/10^8 nt and the “Adduct level-24 hr-therapeutic” value (H1975; [4]) was 108 ± 33.3 /10^8 nt. For the same compound, the “Adduct level-4 hr-microdose” value (H23; 1 μM carboplatin) was 7.4 ± 1.4 /10^8 nt, the AUC of adduct-microdose (H23; [1]) was 136.6 ± 9.0 hr-adducts/10^8 nt and the “Adduct level-24 hr Microdose” value (H23; [2]) was 5.4 ± 0.1 /10^8 nt. The “Adduct level-4 hr-therapeutic” value (H23; 100 μM carboplatin) was 825 ± 5.8 /10^8 nt, the AUC of adduct-therapeutic (H23; [3]) was 13255 ± 835 hr-adducts/10^8 nt and the “Adduct level-24 hr-therapeutic” value (H23; [4]) was 414 ± 27.1 /10^8 nt. For the same compound, the “Adduct level-4 hr-microdose” value (H460; 1 μM carboplatin) was 6.8 ± 0.2 /10^8 nt, the AUC of adduct-microdose (H460; [1]) was 85.6 ± 8.4 hr-adducts/10^8 nt and the “Adduct level-24 hr Microdose” value (H460; [2]) was 1.0 ± 0.4 /10^8 nt. For the same compound, the “Adduct level-4 hr-therapeutic” value (H460; 100 μM carboplatin) was 885 ± 36.3 /10^8 nt, the AUC of adduct-therapeutic (H460; [3]) was 9488 ± 902 hr-adducts/10^8 nt and the “Adduct level-24 hr-therapeutic” value (H460; [4]) was 177 ± 11.5 /10^8 nt. For the same compound, the “Adduct level-4 hr-microdose” value (HCC827; 1 μM carboplatin) was 2.5 ± 0.0 /10^8 nt, the AUC of adduct-microdose (HCC827; [1]) was 51.7 ± 2.4 hr-adducts/10^8 nt and the “Adduct level-24 hr Microdose” value (HCC827; [2]) was 1.8 ± 0.3 /10^8 nt. For the same compound, the “Adduct level-4 hr-therapeutic” value (HCC827; 100 μM carboplatin) was 295 ± 58.8 /10^8 nt, the AUC of adduct-therapeutic (HCC827; [3]) was 4941 ± 739 hr-adducts/10^8 nt and the “Adduct level-24 hr-therapeutic” value (HCC827; [4]) was 162 ± 15.4 /10^8 nt. The “Adduct level-4 hr-microdose” value (H727; 1 μM carboplatin) was 6.23 ± 2.73 /10^8 nt, the AUC of adduct-microdose (H727; [1]) was 61.7 ± 9.0 hr-adducts/10^8 nt and the “Adduct level-24 hr Microdose” value (H727; [2]) was 1.3 ± 0.1 /10^8 nt. The “Adduct level-4 hr-therapeutic” value (H727; 100 μM carboplatin) was 684 ± 223.5 /10^8 nt, the AUC of adduct-therapeutic (H727; [3]) was 6111 ± 661 hr-adducts/10^8 nt and the “Adduct level-24 hr-therapeutic” value (H727; [4]) was 174 ± 5.6 /10^8 nt. For the same compound, the IC50 (T24) was 42.5 ± 6.99 µM, the IC50 (TCCSUP) was 91.5 ± 6.81 µM and the IC50 (RT4) was 56.9 ± 11.2 µM. It also gave an IC50 (HT1197) of 84.5 ± 24.6 µM, an IC50 (J82) of 168 ± 19.9 µM and an IC50 5637 of 24.3 µM. For the same compound, the IC50 (5637; listed as Carboplatin) was 24.35 ± 0.12 µM.
